In PMC5862592, “CDK8/19 inhibition induces premature G1/S transition and ATR-dependent cell death in prostate cancer cells” (Oncotarget, 2018):
Where two headings read alike, the source gives them in different places.

What was measured:
Assay in all cases: biochemical
Parameters in all cases: KINOMEscan active site-directed competition binding assay (DiscoveRx), 456 kinases, per cent of control at 300 nM
Conditions in all cases: read-out: Percent of Control (%)
TRKB = target: T1, TRKB (Homo sapiens, UniProt Q16620)
T1 construct: gene NTRK2
Summary of the method: (§1)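 Each compound is tested at 300 nmol/L against a panel of 456 kinases. Interaction is quantified by competition for the kinase active site.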

[1] = target: T2, RPS6KA5(Kin.Dom.2-C-terminal) (Homo sapiens, UniProt O75582)
T2 construct: Kin.Dom.2-C-terminal
Summary of the method: as §1

RET(M918T) = RET(M918T) (Homo sapiens, UniProt P07949, M918T)
Summary of the method: as §1

CDKL2 = CDKL2 (Homo sapiens, UniProt Q92772)
Summary of the method: as §1

MEK2 = target: T3, MEK2 (Homo sapiens, UniProt P36507)
T3 construct: gene MAP2K2
Summary of the method: as §1

MET = MET (Homo sapiens, UniProt P08581)
Summary of the method: as §1

ERK1 = target: T4, ERK1 (Homo sapiens, UniProt P27361)
T4 construct: gene MAPK3
Summary of the method: as §1

EPHB1 = EPHB1 (Homo sapiens, UniProt P54762)
Summary of the method: as §1

TRPM6 = TRPM6 (Homo sapiens, UniProt Q9BX84)
Summary of the method: as §1

PIK3CG = PIK3CG (Homo sapiens, UniProt P48736)
Summary of the method: as §1

[2] = target: T5, TYK2(JH1domain-catalytic) (Homo sapiens, UniProt P29597)
T5 construct: JH1domain-catalytic
Summary of the method: as §1

CDK2 = CDK2 (Homo sapiens, UniProt P24941)
Summary of the method: as §1

ULK1 = ULK1 (Homo sapiens, UniProt O75385)
Summary of the method: as §1

DDR2 = DDR2 (Homo sapiens, UniProt Q16832)
Summary of the method: as §1

TLK2 = TLK2 (Homo sapiens, UniProt Q86UE8)
Summary of the method: as §1

LRRK2(G2019S) = LRRK2(G2019S) (Homo sapiens, UniProt Q5S007, G2019S)
Summary of the method: as §1

ULK2 = ULK2 (Homo sapiens, UniProt Q8IYT8)
Summary of the method: as §1

EPHA7 = EPHA7 (Homo sapiens, UniProt Q15375)
Summary of the method: as §1

PRKCQ = PRKCQ (Homo sapiens, UniProt Q04759)
Summary of the method: as §1

IRAK4 = IRAK4 (Homo sapiens, UniProt Q9NWZ3)
Summary of the method: as §1

S6K1 = target: T6, S6K1 (Homo sapiens, UniProt P23443)
T6 construct: gene RPS6KB1
Summary of the method: as §1

KIT(V559D,T670I) = KIT(V559D,T670I) (Homo sapiens, UniProt P10721, T670I/V559D)
Summary of the method: as §1

Chain of RET(M918T) (P07949 whole entry M918T): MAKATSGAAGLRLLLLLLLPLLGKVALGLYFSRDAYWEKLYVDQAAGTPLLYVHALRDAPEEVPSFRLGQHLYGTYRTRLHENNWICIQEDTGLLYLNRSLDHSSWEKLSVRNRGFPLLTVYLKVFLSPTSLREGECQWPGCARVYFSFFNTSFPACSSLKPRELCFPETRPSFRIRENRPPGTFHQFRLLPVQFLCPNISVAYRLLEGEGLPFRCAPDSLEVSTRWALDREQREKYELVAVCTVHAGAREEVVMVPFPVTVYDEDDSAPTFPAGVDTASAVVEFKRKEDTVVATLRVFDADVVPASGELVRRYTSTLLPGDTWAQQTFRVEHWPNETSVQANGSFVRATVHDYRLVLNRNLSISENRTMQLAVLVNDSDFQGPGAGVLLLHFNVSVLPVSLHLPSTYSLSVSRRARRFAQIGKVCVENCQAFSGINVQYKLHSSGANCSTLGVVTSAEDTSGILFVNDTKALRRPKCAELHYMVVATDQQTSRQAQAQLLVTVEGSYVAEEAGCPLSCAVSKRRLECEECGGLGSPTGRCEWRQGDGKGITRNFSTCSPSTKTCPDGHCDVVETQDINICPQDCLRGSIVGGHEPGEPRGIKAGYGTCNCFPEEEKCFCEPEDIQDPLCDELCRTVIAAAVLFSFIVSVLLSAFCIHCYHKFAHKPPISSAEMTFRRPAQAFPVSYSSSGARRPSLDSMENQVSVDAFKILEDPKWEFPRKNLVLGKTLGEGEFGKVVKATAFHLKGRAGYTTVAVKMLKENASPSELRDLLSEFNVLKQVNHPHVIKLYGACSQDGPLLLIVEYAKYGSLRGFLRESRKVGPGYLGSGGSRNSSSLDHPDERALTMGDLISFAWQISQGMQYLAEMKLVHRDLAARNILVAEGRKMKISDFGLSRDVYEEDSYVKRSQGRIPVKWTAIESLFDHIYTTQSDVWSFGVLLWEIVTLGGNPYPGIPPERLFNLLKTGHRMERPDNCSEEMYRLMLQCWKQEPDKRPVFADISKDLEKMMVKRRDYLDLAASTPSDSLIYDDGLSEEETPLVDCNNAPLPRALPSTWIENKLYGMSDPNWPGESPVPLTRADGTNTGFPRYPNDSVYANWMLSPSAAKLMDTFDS
Chain of IRAK4 (Q9NWZ3 whole entry): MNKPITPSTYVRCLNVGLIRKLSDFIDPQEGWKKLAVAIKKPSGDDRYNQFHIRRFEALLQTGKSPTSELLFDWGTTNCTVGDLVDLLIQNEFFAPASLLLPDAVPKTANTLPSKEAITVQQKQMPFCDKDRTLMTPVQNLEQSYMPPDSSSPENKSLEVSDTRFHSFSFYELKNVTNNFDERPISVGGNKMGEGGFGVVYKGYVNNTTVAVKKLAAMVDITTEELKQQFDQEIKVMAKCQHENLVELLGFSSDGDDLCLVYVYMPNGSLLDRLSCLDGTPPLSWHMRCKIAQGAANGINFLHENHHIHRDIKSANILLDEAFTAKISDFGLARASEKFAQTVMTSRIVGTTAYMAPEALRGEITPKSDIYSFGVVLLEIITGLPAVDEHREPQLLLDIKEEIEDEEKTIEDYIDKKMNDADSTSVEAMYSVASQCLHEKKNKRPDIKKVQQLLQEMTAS
T4 sequence (P27361 whole entry): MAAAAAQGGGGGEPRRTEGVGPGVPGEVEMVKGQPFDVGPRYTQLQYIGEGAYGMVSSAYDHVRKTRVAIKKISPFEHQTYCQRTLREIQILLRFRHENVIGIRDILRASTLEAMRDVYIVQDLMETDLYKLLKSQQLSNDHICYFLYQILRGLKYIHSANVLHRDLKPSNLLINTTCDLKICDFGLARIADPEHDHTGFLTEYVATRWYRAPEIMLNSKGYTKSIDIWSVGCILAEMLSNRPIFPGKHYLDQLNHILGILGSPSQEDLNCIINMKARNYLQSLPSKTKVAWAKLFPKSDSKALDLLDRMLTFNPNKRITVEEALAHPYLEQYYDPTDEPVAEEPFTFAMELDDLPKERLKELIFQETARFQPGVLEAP
Chain of KIT(V559D,T670I) (P10721 whole entry V559D/T670I): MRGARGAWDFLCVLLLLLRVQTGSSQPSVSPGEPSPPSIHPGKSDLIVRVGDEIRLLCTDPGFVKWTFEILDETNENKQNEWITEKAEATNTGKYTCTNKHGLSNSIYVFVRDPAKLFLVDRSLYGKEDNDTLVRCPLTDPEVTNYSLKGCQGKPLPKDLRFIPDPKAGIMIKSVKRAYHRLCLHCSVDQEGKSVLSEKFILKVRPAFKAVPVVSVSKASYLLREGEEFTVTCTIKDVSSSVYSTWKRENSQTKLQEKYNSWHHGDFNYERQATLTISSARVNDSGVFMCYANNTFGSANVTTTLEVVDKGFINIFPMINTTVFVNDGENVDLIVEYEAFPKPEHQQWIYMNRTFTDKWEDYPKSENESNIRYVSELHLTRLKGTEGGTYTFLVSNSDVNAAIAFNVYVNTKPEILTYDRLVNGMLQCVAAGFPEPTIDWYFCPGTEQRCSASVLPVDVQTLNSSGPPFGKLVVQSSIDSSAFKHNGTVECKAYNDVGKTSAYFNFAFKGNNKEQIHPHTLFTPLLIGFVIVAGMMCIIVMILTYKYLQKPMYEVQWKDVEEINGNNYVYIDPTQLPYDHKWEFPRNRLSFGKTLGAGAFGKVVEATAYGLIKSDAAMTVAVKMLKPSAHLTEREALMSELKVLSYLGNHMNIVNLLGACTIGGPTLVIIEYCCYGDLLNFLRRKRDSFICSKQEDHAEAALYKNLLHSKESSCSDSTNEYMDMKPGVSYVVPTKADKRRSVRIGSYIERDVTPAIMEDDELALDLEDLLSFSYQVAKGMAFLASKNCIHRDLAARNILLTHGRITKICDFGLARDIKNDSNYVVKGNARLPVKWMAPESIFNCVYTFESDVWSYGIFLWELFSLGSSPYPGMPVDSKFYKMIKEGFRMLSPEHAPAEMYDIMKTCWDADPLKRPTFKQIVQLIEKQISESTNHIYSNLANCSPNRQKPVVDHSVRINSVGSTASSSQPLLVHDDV
Chain of MET (P08581 whole entry): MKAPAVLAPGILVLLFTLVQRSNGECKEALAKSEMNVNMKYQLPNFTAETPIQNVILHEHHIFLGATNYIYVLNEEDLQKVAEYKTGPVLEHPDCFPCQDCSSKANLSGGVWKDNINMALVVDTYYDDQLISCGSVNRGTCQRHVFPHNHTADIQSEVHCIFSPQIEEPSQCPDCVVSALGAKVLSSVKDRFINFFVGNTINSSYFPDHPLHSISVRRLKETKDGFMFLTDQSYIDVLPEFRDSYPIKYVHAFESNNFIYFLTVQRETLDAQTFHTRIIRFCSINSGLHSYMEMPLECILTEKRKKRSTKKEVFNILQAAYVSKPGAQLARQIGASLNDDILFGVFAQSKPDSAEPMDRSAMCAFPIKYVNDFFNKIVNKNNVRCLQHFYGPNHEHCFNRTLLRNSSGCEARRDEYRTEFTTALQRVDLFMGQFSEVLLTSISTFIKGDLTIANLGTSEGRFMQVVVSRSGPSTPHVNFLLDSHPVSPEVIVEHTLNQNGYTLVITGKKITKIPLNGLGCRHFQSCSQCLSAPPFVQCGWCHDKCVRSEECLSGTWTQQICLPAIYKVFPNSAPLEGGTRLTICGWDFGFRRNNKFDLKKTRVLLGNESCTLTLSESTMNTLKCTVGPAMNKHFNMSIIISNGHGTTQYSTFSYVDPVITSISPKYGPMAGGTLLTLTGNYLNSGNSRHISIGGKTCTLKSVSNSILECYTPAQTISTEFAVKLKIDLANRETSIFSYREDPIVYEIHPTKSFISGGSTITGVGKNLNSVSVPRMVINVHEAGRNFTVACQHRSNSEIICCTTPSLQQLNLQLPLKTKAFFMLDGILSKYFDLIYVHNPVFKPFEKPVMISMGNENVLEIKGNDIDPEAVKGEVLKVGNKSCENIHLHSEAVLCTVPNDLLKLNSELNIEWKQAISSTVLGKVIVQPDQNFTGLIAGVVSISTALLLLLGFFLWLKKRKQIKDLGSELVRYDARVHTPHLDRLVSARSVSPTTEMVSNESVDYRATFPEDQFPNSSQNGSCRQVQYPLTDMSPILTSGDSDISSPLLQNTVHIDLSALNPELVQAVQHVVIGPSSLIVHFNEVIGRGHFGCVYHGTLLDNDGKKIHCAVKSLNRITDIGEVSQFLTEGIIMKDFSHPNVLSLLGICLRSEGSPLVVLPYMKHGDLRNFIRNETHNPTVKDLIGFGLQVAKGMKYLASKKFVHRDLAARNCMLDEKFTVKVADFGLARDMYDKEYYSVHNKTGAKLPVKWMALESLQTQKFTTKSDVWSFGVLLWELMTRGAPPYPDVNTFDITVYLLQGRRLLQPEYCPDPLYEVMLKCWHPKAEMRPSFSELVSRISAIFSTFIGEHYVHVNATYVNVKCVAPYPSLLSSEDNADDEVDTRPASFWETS
Chain of PRKCQ (Q04759 whole entry): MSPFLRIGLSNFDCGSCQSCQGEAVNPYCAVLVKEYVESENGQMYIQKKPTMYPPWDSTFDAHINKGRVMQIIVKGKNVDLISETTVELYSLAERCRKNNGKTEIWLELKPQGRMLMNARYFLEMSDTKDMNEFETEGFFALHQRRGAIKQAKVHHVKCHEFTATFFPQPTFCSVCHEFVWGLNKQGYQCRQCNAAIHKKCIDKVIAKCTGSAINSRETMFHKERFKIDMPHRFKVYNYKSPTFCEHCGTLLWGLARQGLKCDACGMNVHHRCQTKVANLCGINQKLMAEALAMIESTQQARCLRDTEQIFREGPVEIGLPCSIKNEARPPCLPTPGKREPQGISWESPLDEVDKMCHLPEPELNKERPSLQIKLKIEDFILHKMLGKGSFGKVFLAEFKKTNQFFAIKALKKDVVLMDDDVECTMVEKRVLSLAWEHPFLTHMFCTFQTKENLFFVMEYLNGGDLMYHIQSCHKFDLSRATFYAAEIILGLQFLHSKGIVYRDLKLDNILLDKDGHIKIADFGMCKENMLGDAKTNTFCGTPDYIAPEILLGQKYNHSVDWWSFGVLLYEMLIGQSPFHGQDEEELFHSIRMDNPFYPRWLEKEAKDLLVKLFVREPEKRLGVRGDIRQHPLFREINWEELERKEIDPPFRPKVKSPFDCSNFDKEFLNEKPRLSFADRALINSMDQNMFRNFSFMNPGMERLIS

O=C(/C=C/c1cnccc1-c1ccc(F)cc1)Nc1ccc(CCc2nnco2)cc1 [T-418, (2E)-3-(4-(4-fluorophenyl)pyridin-3-yl)-N-(4-(2-(1,3,4-oxadiazol-2-yl)ethyl)phenyl)acrylamide]
remaining binding at 0.3 µM (TRKB; sheet T-418): 100%
remaining binding at 0.3 µM ([1]; sheet T-418): 100%
remaining binding at 0.3 µM (RET(M918T); sheet T-418): 98%
remaining binding at 0.3 µM (CDKL2; sheet T-418): 100%
remaining binding at 0.3 µM (MEK2; sheet T-418): 100%
remaining binding at 0.3 µM (MET; sheet T-418): 92%
remaining binding at 0.3 µM (ERK1; sheet T-418): 94%
remaining binding at 0.3 µM (EPHB1; sheet T-418): 86%
remaining binding at 0.3 µM (TRPM6; sheet T-418): 90%
remaining binding at 0.3 µM (PIK3CG; sheet T-418): 100%
remaining binding at 0.3 µM ([2]; sheet T-418): 40%
remaining binding at 0.3 µM (CDK2; sheet T-418): 92%
remaining binding at 0.3 µM (ULK1; sheet T-418): 41%
remaining binding at 0.3 µM (DDR2; sheet T-418): 100%
remaining binding at 0.3 µM (TLK2; sheet T-418): 100%
remaining binding at 0.3 µM (LRRK2(G2019S); sheet T-418): 84%
remaining binding at 0.3 µM (ULK2; sheet T-418): 100%
remaining binding at 0.3 µM (EPHA7; sheet T-418): 96%
remaining binding at 0.3 µM (PRKCQ; sheet T-418): 83%
remaining binding at 0.3 µM (IRAK4; sheet T-418): 100%
remaining binding at 0.3 µM (S6K1; sheet T-418): 100%
remaining binding at 0.3 µM (KIT(V559D,T670I); sheet T-418): 77%

Cc1ncccc1Oc1sc(C(N)=O)c2c1-c1c(cnn1C)CC2 [T-474, 1-methyl-8-((2-methylpyridin-3-yl)oxy)-4,5-dihydro-1H-thieno[3,4-g]indazole-6-carboxamide]
remaining binding at 0.3 µM (TRKB): 92%
remaining binding at 0.3 µM [1]: 100%
remaining binding at 0.3 µM (RET(M918T)): 100%
remaining binding at 0.3 µM (CDKL2): 100%
remaining binding at 0.3 µM (MEK2): 100%
remaining binding at 0.3 µM (MET): 100%
remaining binding at 0.3 µM (ERK1): 100%
remaining binding at 0.3 µM (EPHB1): 82%
remaining binding at 0.3 µM (TRPM6): 95%
remaining binding at 0.3 µM (PIK3CG): 88%
remaining binding at 0.3 µM [2]: 40%
remaining binding at 0.3 µM (CDK2): 98%
remaining binding at 0.3 µM (ULK1): 43%
remaining binding at 0.3 µM (DDR2): 100%
remaining binding at 0.3 µM (TLK2): 100%
remaining binding at 0.3 µM (LRRK2(G2019S)): 88%
remaining binding at 0.3 µM (ULK2): 100%
remaining binding at 0.3 µM (EPHA7): 94%
remaining binding at 0.3 µM (PRKCQ): 100%
remaining binding at 0.3 µM (IRAK4): 100%
remaining binding at 0.3 µM (S6K1): 100%
remaining binding at 0.3 µM (KIT(V559D,T670I)): 100%
